According to patent US20050112183A1, “Compositions and methods for treating neuropathic sensory loss” (priority 2003, published 2005):

Test system: neuropathically induced negative sensory phenomena (NSP)
Assay: application of local anesthetic to diabetic neuropathy patients, patient-reported
Format: in vivo
Conditions: some diabetic neuropathy patients; local application of the anesthetic
Excerpt: It has previously been assumed that positive sensory phenomena (“PSP”) is caused by an increase in spontaneous nerve discharge from damaged and dysfunctional peripheral nerves. […] Based on the current understanding of the underlying etiology of NSP it would be unexpected that an anesthetic would effectively mitigate the negative effects of NSP. It has now been found, however, that the application of local anesthetics such as lidocaine can effectively treat NSP. For example, some diabetic neuropathy patients reported both pain relief and improved NSP, that is, the patients experienced pain relief, improvement of sensory loss (decreased numbness), and improved tactile response (they could better feel objects touching their skin). Thus the anesthetic as applied in this embodiment decreased numbness. This is contrary to all prior teachings about anesthetics.

SMILES: CCN(CC)CC(=O)Nc1c(C)cccc1C [lidocaine, 2-(diethylamino)-N-(2,6-dimethylphenyl)-acetamide]
- negative sensory phenomena (NSP: numbness, sensory loss, tactile response) as reported by patients: improved NSP
- pain as reported by patients: pain relief
